Values of other authors, collected in patent EP3569066A1, “ECOLOGICAL FORMULA HAVING MULTIPLE ANTIMICROBIAL ACTION (BACTERICIDAL, FUNGICIDAL AND ANTI-VIRAL) BASED ON COMMERCIAL MOLECULES” (Arias Dipre, Juan José, priority 2017, dated 2018).
Read-outs that look alike come from different tables or passages of the source.

Conditions: 0.1N solution

O=C(O)CC(O)(CC(=O)O)C(=O)O [Ingredient 1, 2-HYDROXY-1, 2, 3 TRI[…]]
pH: 2.2
pH (listed as E): 2.2 (0.1 N)
